From patent publication US20240408073A1, “METHODS FOR TREATING A TRAUMA PATIENT” (Beth Israel Deaconess Medical Center, Inc., priority 2021, published 2024)

How the values were obtained:
PMN [1] = experiment: PMN CTX (chemotaxis) transwell assay; assay type: cell-based, human
Experimental: Human PMN were isolated from freshly withdrawn peripheral blood of healthy volunteers, as described previously. In brief, heparinized whole blood (10 U/ml) was centrifuged at 200×g for 10 min. The buffy coat and RBC were layered onto 1-Step Polymorphs (AN221725, Accurate Chemical & Scientific Corp, Carle Place, NY, USA), followed by centrifugation at 500×g for 30 min. The PMN layer was collected and diluted with an equal volume of 0.45% NaCl to restore osmolarity for 5 min at room temperature. The suspensions were then washed in RPMI 1640 and centrifuged at 200×g for 10 min. RBC in pellet were lysed with ice-cold 0.2% NaCl for 20 sec and the same volume of 1.6% NaCl was applied to end lysis. Cells were centrifuged again at 200×g for 10 min to collect PMN. PMN were resuspended in physiological solutions depending on the next functional study.
CTX assay PMN CTX was studied in […]. 1×10^5 PMN in 75 μL of RPMI with 2% heat-inactivated FBS were applied to the upper chamber and 150 μL of the same media containing indicated chemoattractants were applied to the lower chamber. mtDNA application was done at RT, rotating for 15 min. […] Cells were incubated (37° C., 5% CO2) for 60 min. PMN were then collected from the lower chambers, centrifuged (500×g, 5 min, RT) and re-suspended in 200 μL of cell lysis solution (×1/20) with CyQUANT GR dye (×1/400) in water for 15 min at RT (C7026, Thermo Fisher Scientific). PMN numbers were evaluated in 96-well plates using 480 nm excitation and 520 nm emission with known numbers of PMN for standard curve.

[2] = system: Formyl Peptide Receptor-1 (FPR1); experiment: Flow cytometry for surface expression of FPR1 on human PMN; assay type: cell-based; settings: FIG. 9G
Experimental: Finally, PMN were incubated with fluorescein (FITC)-conjugated anti-human FPR1 antibody (FAB3744F, LifeSpan BioSciences Inc., Seattle, WA), phycoerythrin (PE)-conjugated anti-human CXCR2 antibody (FAB331P, LifeSpan BioSciences Inc.), or PE-conjugated anti-human BLT1 antibody (FAB099P, LifeSpan BioSciences Inc.) in the dark for 30 min at room temperature. FITC-conjugated isotype antibody (400210, BioLegend, San Diego, CA) or PE-conjugated isotype antibody (400212, BioLegend) was used as a negative control. Allophycocyanin (APC)—conjugated anti-human CD16 antibody (360705, BioLegend) was used to confirm PMN identification.

human PMN [3] = experiment: Bacterial phagocytosis assay by flow cytometry; assay type: cell-based; settings: drug 30 min, then mtDNA 15 min; FIG. 4A
HDAC6 = target: T1, HDAC6 (Homo sapiens, UniProt Q9UBN7); experiment: HDAC6 activation
T1 construct: endogenous in cells; host or cells: PMN
T1 sequence (Q9UBN7 1-1215): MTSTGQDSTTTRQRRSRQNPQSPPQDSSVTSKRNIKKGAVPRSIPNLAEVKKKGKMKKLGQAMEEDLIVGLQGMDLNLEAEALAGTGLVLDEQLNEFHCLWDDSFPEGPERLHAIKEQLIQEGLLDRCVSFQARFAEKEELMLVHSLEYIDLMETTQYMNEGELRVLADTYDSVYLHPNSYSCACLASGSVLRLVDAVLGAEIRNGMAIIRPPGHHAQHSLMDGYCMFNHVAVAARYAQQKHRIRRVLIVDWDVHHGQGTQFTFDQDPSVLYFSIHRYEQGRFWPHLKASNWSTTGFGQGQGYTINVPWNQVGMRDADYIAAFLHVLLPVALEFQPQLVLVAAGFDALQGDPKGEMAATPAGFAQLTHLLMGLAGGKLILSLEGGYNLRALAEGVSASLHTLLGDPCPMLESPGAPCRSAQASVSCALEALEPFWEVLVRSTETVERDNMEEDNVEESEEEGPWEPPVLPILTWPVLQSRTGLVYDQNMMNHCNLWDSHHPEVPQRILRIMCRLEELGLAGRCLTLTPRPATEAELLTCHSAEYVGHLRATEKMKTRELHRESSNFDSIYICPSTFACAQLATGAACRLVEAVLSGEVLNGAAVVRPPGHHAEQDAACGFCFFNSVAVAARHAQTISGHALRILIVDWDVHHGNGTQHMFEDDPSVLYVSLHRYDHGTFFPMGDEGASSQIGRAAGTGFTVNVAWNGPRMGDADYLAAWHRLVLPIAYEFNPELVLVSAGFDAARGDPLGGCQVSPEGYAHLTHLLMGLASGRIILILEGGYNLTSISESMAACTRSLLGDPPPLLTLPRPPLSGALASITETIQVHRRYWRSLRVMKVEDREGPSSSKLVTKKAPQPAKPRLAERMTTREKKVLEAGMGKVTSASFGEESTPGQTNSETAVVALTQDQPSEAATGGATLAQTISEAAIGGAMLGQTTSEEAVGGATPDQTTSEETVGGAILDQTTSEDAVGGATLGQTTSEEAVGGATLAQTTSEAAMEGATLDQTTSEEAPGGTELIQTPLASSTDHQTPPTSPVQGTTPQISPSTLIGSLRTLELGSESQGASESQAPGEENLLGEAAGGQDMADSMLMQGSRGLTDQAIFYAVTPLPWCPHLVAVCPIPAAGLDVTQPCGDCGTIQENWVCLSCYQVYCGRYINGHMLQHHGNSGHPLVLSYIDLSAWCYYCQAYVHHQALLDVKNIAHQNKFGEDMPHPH

human PMN [4] = experiment: Bacterial phagocytosis assay by colony-forming unit (CFU) count; assay type: cell-based; settings: drug 30 min, then mtDNA 15 min; for PMN uptake of Sa in co-culture suppressed by mtDNA (PMN lysis/agar plate): FIG. 4B; for Sa killing / clearance of Sa from co-culture media suppressed by mtDNA: FIG. 4C
Experimental: Before the CFU count of bacteria, Staphylococcus aureus (Sa) were opsonized with autologous serum from the PMN donor. OD600=0.1 were determined as 10^8 CFU/mL according to previous measurements. […] Then, Sa were incubated with PMN at 1:1 ratio in 1 mL 0.9% NaCl supplemented with human serum for 30 min rotating. […] The supernatant was collected separately, centrifuged at 5000×g for 10 min to pellet bacteria. The bacteria were applied on agar plates and after 18 hrs the bacterial colonies were counted.

[5] = cited from earlier work; for Drug-drug interactions: VAL with PAR, clinical settings; for Bioavailability: both by parenteral and enteral routes
PMN [6] = experiment: PMN respiratory burst in trauma patient plasma; assay type: cell-based, human; settings: FIG. 9E
PMN [7] = experiment: NETosis of PMN incubated with trauma plasma, induced by PMA; assay type: cell-based, human; settings: post-treatment 30 min after plasma, FIG. 9F
human PMN [8] = experiment: Actin polymerization assay by rhodamine phalloidin staining; assay type: cell-based; settings: FIG. 5
Experimental: Actin polymerization was studied using an F-Actin Visualization Biochem Kit (Cytoskeleton, Inc., Denver, CO, USA) according to the manufacturer's instructions. Briefly, PMN were applied to glass slides (Thermo Fisher Scientific) pre-coated with 0.1% poly-L-lysine solution ([…], MilliporeSigma) in H2O. Then 200 μL of Fixative solution was added to the slides and incubated for 10 min at RT. After washing with 200 μL of Wash buffer for 30 sec at RT, 200 μL of Permeabilization Buffer was added to the slides and incubated for 5 min at RT. Then, the cells were stained with rhodamine phalloidin for 30 min at RT in dark. The slides were then washed with Wash buffer and Hoechst 33342 (1:1,000 in PBS) was applied to stain nucleus. Followed by 3 times of washing, 20 μL of Mounting medium was added to the center of each slide and a coverslip was put on. Clear nail polish was used to seal coverslips. The actin filaments were observed using AxioImager Epifluorescence Microscope (Zeiss, Jena, Germany) at excitation 535 nm and emission 585 nm.

cortactin = experiment: Western blot of acetylated cortactin in PMN; assay type: cell-based, human; settings: PAR in conjunction with mtDNA; FIG. 3H
Experimental: Briefly, PMN samples were dissolved in Pierce RIPA lysis buffer (25 mM Tris HCl pH 7.6, 150 mM NaCl, 1% NP-40, 1% sodium deoxycholate, 0.1% SDS) (Thermo Fisher Scientific, Waltham, MA, USA) containing Halt Protease & Phosphatase Inhibitor Cocktail (Thermo Fisher Scientific) for 20 min on ice, followed by centrifugation at […] for 20 min at 4° C. Then, the supernatant was collected, concentration was measured using a Pierce BCA Protein Assay Kit (Thermo Fisher Scientific). After mixing and boiling (95° C., 10 min) protein lysate with appropriate amount of 6×Laemmli SDS-sample buffer (J61337, Alfa Aesar, Tewksbury, MA, USA) according to the protein concentration, 40 μg of protein lysates were separated by SDS/PAGE and transferred to nitrocellulose membranes contained in an iBlot Transfer Stack kit (IB301002, Thermo Fisher Scientific). […] After being incubated with their appropriate secondary antibodies conjugated with horseradish peroxidase (HRP) the following day, the immunoblot signals were detected by application of the Amersham ECL Prime Western Blotting Detection Reagent kit (Cytiva, Marlborough, MA, USA) in a ChemiDoc Imaging System (Bio-Rad, Hercules, CA, USA). Quantification of blots were performed using Image J v.1.53i (National Institute of Health, Bethesda, MD, USA).

Staphylococcus aureus = experiment: Mouse trauma (laparotomy + liver crush) plus intratracheal Staphylococcus aureus lung infection; assay type: in vivo, CD-1 mice; settings: PAR 20 mg/kg
Experimental: Following 48 hr acclimatization, 8-9 week-old male CD-1 mice (body weight 30-32 g) underwent laparotomy followed by crushing of the left lobe of liver 8 times using a sterile forceps. […] Mice were sacrificed 18 h later and bronchoalveolar lavage (BAL) fluid (BALF) was collected by tracheal irrigation with 1 mL of PBS. The collected BALF was centrifuged; the pellet was diluted to count the number of immune cells; and the supernatant was then separated and applied to agar plates to count the remaining bacteria. Experiments were repeated as noted and data were combined.

[9] = inhibitor 30 min prior to mtDNA, N=6

Compound | mtDNA-induced suppression of PMN CTX to GRO-α (PMN [1]; [9]) | mtDNA-induced suppression of PMN CTX to LTB4 (PMN [1]; [9]) | Suppressive effect of mtDNA on PMN chemotaxis (PMN [1]; FIG. 1B, dependence on endosomal acidification) | FPR1 surface expression suppressed by ND6 [2] | Phagocytosis of SYTO9 labeled Staphylococcus aureus by human PMN suppressed by mtDNA (flow cytometry) (human PMN [3]) | Activation of HDAC6 (HDAC6) | PMN uptake of Sa in co-culture suppressed by mtDNA (PMN lysis/agar plate) (human PMN [4]) | Sa killing / clearance of Sa from co-culture media suppressed by mtDNA (human PMN [4]) | Drug-drug interactions [5] | Bioavailability [5] | T1/2 of elimination ([5]; human, in vivo) [h] | PMN respiratory burst (RB) suppressed by trauma plasma (PMN [6]; post-treatment) | NET formation (NETosis) suppressed by trauma plasma (PMN [7]) | F-actin polymerization response to LTB4 inhibited by mtDNA (human PMN [8]) | PMN CTX in the presence of mtDNA (PMN [1]) | Acetylated cortactin (ac-cortactin) level (cortactin) | Lung bacterial clearance (Sa CFU in BAL, % of uninjured controls) (Staphylococcus aureus; post-treatment i.p. 30 min post-injury, VPA 80 mg/kg, alone or combined) | Lung bacterial clearance (Sa CFU in BAL) (Staphylococcus aureus; pre-treatment i.p. 30 min prior to injury, Sa i.t. 4 h after trauma) | PMN respiratory burst (RB) suppressed by trauma plasma (PMN [6]; pre-treatment) | Suppression of PMN CTX to LTB4 after ND6 exposure (PMN [1]; N=6)
COC(=O)c1ccc(C=Cc2ccc([N+](=O)[O-])o2)o1 [GRKi, methyl 5-[2-(5-nitro-2-furyl)vinyl]-2-furoate] | rescued | rescued |  |  |  |  |  |  |  |  |  |  |  |  |  |  |  |  |  | 
CCN(CC)CCCC(C)Nc1ccnc2cc(Cl)ccc12 (stereo not drawn) [CQ, chloroquine] |  |  | blocked |  |  |  |  |  |  |  |  |  |  |  |  |  |  |  |  | 
CCCC(CCC)C(=O)O [VPA, valproic acid] |  |  |  | diminish FPR1 regulation by ND6 | reverse mtDNA-mediated suppressive effects on bacterial phagocytosis and killing | blocks activation of HDAC6 | reverse mtDNA-mediated suppressive effects on bacterial phagocytosis and killing | reverse mtDNA-mediated suppressive effects on bacterial phagocytosis and killing | no drug-drug interactions | excellent | 8 to 17 | ineffective | minor reversals | rescued | rescued |  |  |  |  | 
Fc1ccc([C@@H]2CCNC[C@H]2COc2ccc3c(c2)OCO3)cc1 [PAR, paroxetine] |  | rescued |  | diminish FPR1 regulation by ND6 | restored phagocytosis |  | restored phagocytosis | restored Sa killing | no drug-drug interactions | excellent |  | ineffective | minor reversals | rescued |  | blocks mtDNA suppression of ac-cortactin | did not confer significant protection | significantly prevented infection | can rescue RB | rescued
